Measurements from BindingDB's records for doi:10.1038/nchembio.2174 (Oncology Innovative Medicines Unit, 2016).

biological target: T1, Induced myeloid leukemia cell differentiation protein Mcl-1 [171-327] (Homo sapiens, UniProt Q07820); experiment: TR-FRET Binding A; conditions: pH 7.4; 24 °C
T1 construct: 171-327
Experimental: Compound IC50 values were assessed following a 10-point, half-log10 dilution schema starting at 10 uM compound concentration. The assay was performed in 384-well LV plates (Matrix 4365, Thermo Scientific) and run in the presence and absence of the compound of interest. Each well of 12 uL assay mixture contained 10 mM Tris (pH 7.4), 1 mM DTT, 0.005% Tween-20, 150 mM NaCl, 10% DMSO, 3 nM GST-Mcl-1, 1 nM LanthaScreen Eu-tagged GST antibody (#PV5594, Invitrogen, Life Technologies), and 8 nM fluorescently labeled peptide. Reactions were incubated at 24 °C for 60 min before reading on a Tecan F500 spectrofluorometer with excitation at 340 nm and emission at 620 nm and 665 nm. Subsequently, the ratio of fluorescence emission intensity at 665 nm to 620 nm was calculated for each reaction, and the dose response of the ratio to testing compound concentration was fitted to a select fit model that will provide the best fit quality using automatic parameters to derive IC50 values for each testing compound.

T1 sequence (Q07820 171-327): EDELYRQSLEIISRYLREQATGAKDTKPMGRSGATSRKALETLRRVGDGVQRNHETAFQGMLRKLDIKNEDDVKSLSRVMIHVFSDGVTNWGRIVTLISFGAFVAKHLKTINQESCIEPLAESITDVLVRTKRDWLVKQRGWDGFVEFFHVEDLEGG

**Q.** For `Cc1c(-c2cccc3c(CCCOc4cccc5ccccc45)c(C(=O)O)[nH]c23)c(COc2ccccc2)nn1C` [Mcl-1 inhibitor 10], which IC50 is on record?
**A.** Its IC50 is 383 nM.

**Q.** What about the Ki of the same compound?
**A.** The Ki was 104 nM.

**Q.** Which results are given for `Cc1c(-c2cccc3c(CCCOc4cccc5ccccc45)c(C(=O)O)[nH]c23)c(COc2cccc(C=O)c2)nn1C` [7-(3-((3-formylphenoxy)methyl)-1,5-dimethyl-1H-pyrazol-4-yl)-3-(3-(naphthalen-1-yloxy)propyl)-1H-indole-2-carboxylic acid, 7]?
**A.** IC50: 59.5 nM; Ki: 16 nM

**Q.** With `CCc1nn(C)c(CC)c1-c1cccc2c(CCCOc3cccc4ccccc34)c(C(=O)O)n(CCN3CCOCC3)c12` [Mcl-1 inhibitor 12] as the compound, how does the IC50 read?
**A.** The IC50 was 5.96 nM.

**Q.** And the Ki?
**A.** Its Ki is 1.6 nM.

**Q.** What does the source list for `CC(=O)c1cc(OCc2nn(C)c(C)c2-c2cccc3c(CCCOc4cccc5ccccc45)c(C(=O)O)[nH]c23)ccc1B(O)O` [7-(3-((3-Acetyl-4-boronophenoxy)methyl)-1,5-dimethyl-1H-pyrazol-4-yl)-3-(3-(naphthalen-1-yloxy)propyl)-1H-indole-2-carboxylic acid, 6]?
**A.** IC50: 4.7 nM; Ki: 1.2 nM

**Q.** What does the source list for `Cc1c(-c2cccc3c(CCCOc4cccc5ccccc45)c(C(=O)O)n(C)c23)c(COc2ccc(B(O)O)c(C=O)c2)nn1C` [7-(3-((4-Borono-3-formylphenoxy)methyl)-1,5-dimethyl-1Hpyrazol-4-yl)-1-methyl-3-(3-(naphthalen-1-yloxy)propyl)-1H-indole-2-carboxylic acid, 11]?
**A.** IC50: 4.2 nM; Ki: 1.2 nM

**Q.** What does the source list for `Cc1c(-c2cccc3c(CCCOc4cccc5ccccc45)c(C(=O)O)[nH]c23)c(COc2ccc(B(O)O)c(C=O)c2)nn1C` [7-(3-((4-Borono-3-formylphenoxy)methyl)-1,5-dimethyl-1Hpyrazol-4-yl)-3-(3-(naphthalen-1-yloxy)propyl)-1H-indole-2-carboxylic acid, 5]?
**A.** IC50: 3.4 nM; Ki: 0.9 nM

**Q.** With `CC(=O)c1cccc(OCc2nn(C)c(C)c2-c2cccc3c(CCCOc4cccc5ccccc45)c(C(=O)O)[nH]c23)c1` [7-(3-((3-Acetylphenoxy)methyl)-1,5-dimethyl-1H-pyrazol-4-yl)-3-(3-(naphthalen-1-yloxy)propyl)-1H-indole-2-carboxylic acid, 8] as the compound, how does the IC50 read?
**A.** The IC50 was 237 nM.

**Q.** What about the Ki of the same compound?
**A.** Its Ki is 64 nM.
